Laboratory results published in PMC10169861, “Structural mechanism of human oncochannel TRPV6 inhibition by the natural phytoestrogen genistein” (Nature Communications, 2023).
Positions count from the first letter of the chain named. Several values for one entry are separate records, joined by “and”; a condition that tells them apart may be missing. Identical values can stand only once.

Legend:
[1] = biological target: T1, wild-type human TRPV6 (hTRPV6) (Homo sapiens, UniProt Q9H1D0); test: Whole-cell patch-clamp recording of hTRPV6-mediated currents in HEK 293S cells; format: cell-based; details: for TRPV6-mediated current amplitude at −60 mV, normalized to the value in the absence of genistein: WT
T1 construct: Full-length wild-type or mutant human TRPV6 was expressed in HEK 293S cells as described above; expressed in transfected cells; host or cells: HEK 293S GnTI- cells, baculovirus (BacMam) transduction
T1 sequence (Q9H1D0 41-765 limits assumed): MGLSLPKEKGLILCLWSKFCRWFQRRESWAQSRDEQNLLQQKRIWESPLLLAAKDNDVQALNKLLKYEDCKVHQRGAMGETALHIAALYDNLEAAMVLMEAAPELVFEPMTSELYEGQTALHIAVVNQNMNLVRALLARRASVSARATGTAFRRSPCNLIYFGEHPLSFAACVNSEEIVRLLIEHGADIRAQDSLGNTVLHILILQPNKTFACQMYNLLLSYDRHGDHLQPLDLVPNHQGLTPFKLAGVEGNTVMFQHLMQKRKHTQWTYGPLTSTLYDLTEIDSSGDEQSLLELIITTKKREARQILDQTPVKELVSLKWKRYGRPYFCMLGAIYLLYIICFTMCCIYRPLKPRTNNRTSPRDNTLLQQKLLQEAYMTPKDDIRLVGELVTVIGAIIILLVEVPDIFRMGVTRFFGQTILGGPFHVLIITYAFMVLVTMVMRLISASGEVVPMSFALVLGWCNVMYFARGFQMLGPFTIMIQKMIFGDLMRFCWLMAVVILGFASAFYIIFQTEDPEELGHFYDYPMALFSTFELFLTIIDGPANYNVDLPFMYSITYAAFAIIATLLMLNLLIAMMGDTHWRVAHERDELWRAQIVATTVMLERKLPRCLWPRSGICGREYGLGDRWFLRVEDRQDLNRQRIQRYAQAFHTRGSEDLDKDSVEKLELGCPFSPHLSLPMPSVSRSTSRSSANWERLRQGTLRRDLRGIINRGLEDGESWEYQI

[2] = biological target: T1, wild-type human TRPV6 (hTRPV6); test: Fura-2-based ratiometric measurement of Ca2+ uptake in hTRPV6-expressing HEK 293S cells; format: cell-based; details: for normalized change in F340/F380 (Ca2+ uptake relative to no genistein): WT
[3] = biological target: T2, H582A mutant TRPV6 (Homo sapiens, UniProt Q9H1D0, H622A); test: Fura-2-based measurement of Ca2+ uptake, H582A mutant channels; format: cell-based; details: for normalized change in F340/F380 (Ca2+ uptake relative to no genistein): H582A
T2 construct: Full-length wild-type or mutant human TRPV6 was expressed in HEK 293S cells as described above; expressed in transfected cells; host or cells: HEK 293S GnTI- cells, baculovirus (BacMam) transduction
T2 sequence (Q9H1D0 41-765 H622A limits assumed): T1 sequence (Q9H1D0 41-765 limits assumed) with H582A

[4] = biological target: T3, H587A mutant TRPV6 (Homo sapiens, UniProt Q9H1D0, H627A); test: Fura-2-based measurement of Ca2+ uptake, H587A mutant channels; format: cell-based; details: for normalized change in F340/F380 (Ca2+ uptake relative to no genistein): H587A
T3 construct: Full-length wild-type or mutant human TRPV6 was expressed in HEK 293S cells as described above; expressed in transfected cells; host or cells: HEK 293S GnTI- cells, baculovirus (BacMam) transduction
T3 sequence (Q9H1D0 41-765 H627A limits assumed): T1 sequence (Q9H1D0 41-765 limits assumed) with H587A

[5] = biological target: T4, H582A-H587A mutant TRPV6 (Homo sapiens, UniProt Q9H1D0, H622A/H627A); test: Fura-2-based measurement of Ca2+ uptake, H582A-H587A mutant channels; format: cell-based; details: for normalized change in F340/F380 (Ca2+ uptake relative to no genistein): H582A-H587A
T4 construct: Full-length wild-type or mutant human TRPV6 was expressed in HEK 293S cells as described above; expressed in transfected cells; host or cells: HEK 293S GnTI- cells, baculovirus (BacMam) transduction
T4 sequence (Q9H1D0 41-765 H622A/H627A limits assumed): T1 sequence (Q9H1D0 41-765 limits assumed) with H582A, H587A

[6] = biological target: human TRPV6 (human); test: cryo-EM structure; purified hTRPV6 in 150 mM NaCl, 20 mM Tris-HCl pH 8.0, 1 mM βME, 0.01% GDN, 0.001% CHS, with 2 mM genistein; two populations of particles: open (C4, 2.71 Å) and genistein-bound (C1, 2.66 Å)
[7] = Conc 30, individual experiments
[8] = Conc 100, individual experiments
[9] = Conc 300, individual experiments
[10] = Conc 1000, individual experiments
[11] = Conc 3000, individual experiments
[12] = Conc 10, individual experiments
[13] = Conc 10000, individual experiments

O=c1c(-c2ccc(O)cc2)coc2cc(O)cc(O)c12 [genistein, 4′,5,7-trihydroxyisoflavone]
IC50 [1]: 40.7 ± 2.6 µM
inhibition at 50 µM ([1]; HEK293S, 50 µM genistein, –60 mV membrane potential, mean ± SEM, n = 13, read-out: inhibition of the hTRPV6-mediated current): 54 ± 4%
TRPV6-mediated current amplitude at −60 mV, normalized to the value in the absence of genistein ([1]; Conc 6.25 (µM per Supplementary Fig. 1), individual measurements): 0.8818 and 0.9418 and 0.9228 and 0.9734 and 0.9342 and 0.9778 and 0.9793
TRPV6-mediated current amplitude at −60 mV, normalized to the value in the absence of genistein ([1]; Conc 12.5, individual measurements): 0.8695 and 0.8933 and 0.8898 and 0.8819 and 0.904 and 0.9294 and 0.929
TRPV6-mediated current amplitude at −60 mV, normalized to the value in the absence of genistein ([1]; Conc 25, individual measurements): 0.744 and 0.6559 and 0.7679 and 0.6876 and 0.7485 and 0.5641 and 0.5617
TRPV6-mediated current amplitude at −60 mV, normalized to the value in the absence of genistein ([1]; Conc 50, individual measurements): 0.3726 and 0.4985 and 0.3764 and 0.4722 and 0.3722 (2×)
Hill coefficient nHill, current inhibition ([1]; current amplitude at −60 mV, logistic fit, n = 7): 1.80 and 1.80 ± 0.13
normalized change in F340/F380 (Ca2+ uptake relative to no genistein) ([2]; Conc 10 (µM per Fig. 1c), individual experiments): 0.9427 and 0.8061 and 0.8429
normalized change in F340/F380 (Ca2+ uptake relative to no genistein) [2, 7]: 0.7049 and 0.7764 and 0.7537
normalized change in F340/F380 (Ca2+ uptake relative to no genistein) [2, 8]: 0.5343 and 0.4706 and 0.5414
normalized change in F340/F380 (Ca2+ uptake relative to no genistein) [2, 9]: 0.3064 and 0.3178 and 0.351
normalized change in F340/F380 (Ca2+ uptake relative to no genistein) [2, 10]: 0.1486 and 0.1458 and 0.1663
normalized change in F340/F380 (Ca2+ uptake relative to no genistein) [2, 11]: 0.07643 and 0.09271
IC50 ([2]; wild-type, 10 mM Ca2+ after pre-incubation, mean ± SEM, n = 3, read-out: IC50, inhibition of hTRPV6-mediated Ca2+ uptake): 113 µM
Hill coefficient nHill, inhibition of Ca2+ uptake ([2]; wild-type, n = 3): 0.77 ± 0.02
IC50 [3]: 184 ± 24 µM
Hill coefficient nHill ([3]; H582A mutant, n = 3): 0.73 ± 0.04
normalized change in F340/F380 (Ca2+ uptake relative to no genistein) ([3]; Conc 3, individual experiments): 1.0287 and 0.8943 and 0.9077
normalized change in F340/F380 (Ca2+ uptake relative to no genistein) [3, 12]: 0.885 and 0.8976 and 0.8985
normalized change in F340/F380 (Ca2+ uptake relative to no genistein) [3, 7]: 0.8976 and 0.8451 and 0.809
normalized change in F340/F380 (Ca2+ uptake relative to no genistein) [3, 8]: 0.6519 and 0.7074 and 0.5784
normalized change in F340/F380 (Ca2+ uptake relative to no genistein) [3, 9]: 0.3755 and 0.336 and 0.3944
normalized change in F340/F380 (Ca2+ uptake relative to no genistein) [3, 10]: 0.155 and 0.378 and 0.368
normalized change in F340/F380 (Ca2+ uptake relative to no genistein) [3, 11]: 0.1504 and 0.2134 and 0.1508
IC50 [4]: 267 ± 29 µM
Hill coefficient nHill ([4]; H587A mutant, n = 3): 0.67 ± 0.03
normalized change in F340/F380 (Ca2+ uptake relative to no genistein) [4, 12]: 0.9155 and 0.8981 and 0.9014
normalized change in F340/F380 (Ca2+ uptake relative to no genistein) [4, 7]: 0.7349 and 0.8633 and 0.7848
normalized change in F340/F380 (Ca2+ uptake relative to no genistein) [4, 8]: 0.5614 and 0.5516 and 0.49
normalized change in F340/F380 (Ca2+ uptake relative to no genistein) [4, 9]: 0.505 and 0.498 and 0.5741
normalized change in F340/F380 (Ca2+ uptake relative to no genistein) [4, 10]: 0.2958 and 0.3277 and 0.2981
normalized change in F340/F380 (Ca2+ uptake relative to no genistein) [4, 11]: 0.1683 and 0.1914 and 0.1575
normalized change in F340/F380 (Ca2+ uptake relative to no genistein) [4, 13]: 0.08605 and 0.071 and 0.06959
IC50 [5]: 318 ± 45 µM
Hill coefficient nHill ([5]; H582A-H587A mutant, n = 3): 0.71 ± 0.06
normalized change in F340/F380 (Ca2+ uptake relative to no genistein) [5, 12]: 0.8831 and 0.8274 and 0.7934
normalized change in F340/F380 (Ca2+ uptake relative to no genistein) [5, 7]: 0.9307 and 0.8133 and 0.7372
normalized change in F340/F380 (Ca2+ uptake relative to no genistein) [5, 8]: 0.6996 and 0.5804 and 0.6176
normalized change in F340/F380 (Ca2+ uptake relative to no genistein) [5, 9]: 0.6004 and 0.5392 and 0.6135 and 0.4739
normalized change in F340/F380 (Ca2+ uptake relative to no genistein) [5, 10]: 0.3135 and 0.3303
normalized change in F340/F380 (Ca2+ uptake relative to no genistein) [5, 11]: 0.1423 and 0.1604 and 0.1695
normalized change in F340/F380 (Ca2+ uptake relative to no genistein) [5, 13]: 0.08246 and 0.05437 and 0.05709

human TRPV6 (natural protein)
stoichiometry N [6]: 4
